Data taken from paper PMC8522722, “Safety and Pharmacokinetics in Human Volunteers of Taniborbactam (VNRX-5133), a Novel Intravenous β-Lactamase Inhibitor” (Antimicrobial Agents and Chemotherapy, 2021).

Tests used:
[1] = Single-ascending-dose (SAD) pharmacokinetics in plasma and urine, healthy adult volunteers; assay type: in vivo, human; conditions: for Tmax: median (range); for Fe: excreted unchanged in urine over 48 h; for Ae: urine over 48 h
Experimental: (§1) Eligible subjects were randomized to receive either taniborbactam or placebo in a 3:1 ratio within dose cohorts in both the SAD and MAD parts of the study. Each dose cohort in the SAD part of the study enrolled 8 subjects, and each dose cohort in the MAD part of the study enrolled 12 subjects. In the SAD part, subjects received 62.5, 125, 250, 500, 1,000, or 1,500 mg taniborbactam as a 2-h intravenous (i.v.) infusion. In the MAD part, subjects received 2-h intravenous i.v. infusions of 250, 500, or 750 mg taniborbactam q8h over 10 days, ending after a final morning dose on day 10 (total of 28 doses).
Blood samples for assay of taniborbactam in plasma were collected predose and at 1, 2, 2.25, 2.5, 2.75, 3, 4, 6, 8, 12, 26, and 50 h after the start of drug infusion in the SAD part. For the MAD part, blood samples to determine taniborbactam plasma concentrations were collected predose and at 1, 2, 2.25, 2.5, 2.75, 3, 4, 6, and 8 h following the first dose (day 1) and predose and at 1, 2, 2.25, 2.5, 2.75, 3, 4, 6, 10, 14, and 26 h following the last dose (day 10). Urine was collected predose and at intervals of 0 to 4, 4 to 8, 8 to 24, and 24 to 48 h after the start of the infusion in the SAD part for the higher-dose groups (500 to 1,500 mg taniborbactam). For the MAD part, urine was collected through the dosing interval following the last dose using collection intervals of 0 to 4 and 4 to 8 h after the start of the infusion. At the end of each urine collection interval, the volume of each urine collection was recorded and a sample was taken.
Plasma and urine samples were assayed for taniborbactam and screened for possible metabolites. Human dipotassium ethylenediaminetetraacetic acid (K2EDTA) plasma samples were processed using protein precipitation and assayed using ultra-high-performance liquid chromatography with tandem mass spectrometric detection (LC-MS/MS). Both low- and high-range methods were developed and validated for plasma samples, with calibration ranges of 5 to 5,000 ng/ml and 100 to 100,000 ng/ml, respectively. Acidified urine samples were processed using solid-phase extraction and assayed using a validated LC-MS/MS method with a calibration range of 5.0 to 5,000 ng/ml. For both matrices, separation was accomplished using a Waters Acquity HSS T3 column (Milford, MA) at 50°C, and gradient elution using 10 mM ammonium formate with 1% formic acid as mobile phase A and 50:50:1 acetonitrile:methanol:formic acid (vol/vol/vol) as mobile phase B. A triple quadrupole mass spectrometer (API Triple Quad 5500; AB Sciex, Framingham, MA) equipped with a turbo-ion spray set was used for detection in positive ion mode, and quantification was based on multiple reaction monitoring. The internal standard used in the assays was D4-taniborbactam.
Individual subject plasma and urine taniborbactam pharmacokinetic parameters were evaluated using noncompartmental analysis methods (Phoenix WinNonlin, Certara, Princeton, NJ). Single-dose pharmacokinetic parameters were determined in the SAD part, and both single-dose (day 1) and multiple-dose (day 10) pharmacokinetic parameters were determined in the MAD part. Estimated pharmacokinetic parameters included Cmax, time to Cmax (Tmax), AUCtau, AUC0–inf, t1/2, CL, VZ, Ae, Fe, and CLR. The actual sample times were used to calculate the pharmacokinetic parameters. Calculation of λZ was based on best fit of concentrations in the observed terminal elimination phase of a profile, and statistical inclusion of any parameter based on λZ required the goodness of fit statistic (R^2) to be greater than 0.8. Pharmacokinetic data were summarized using descriptive statistics by treatment. Dose proportionality based on Cmax and AUC was determined using linear regression to calculate the slope and 90% CI and observing whether a slope of 1 was included in the confidence interval. The dose proportionality analysis included subject body weight as a covariate in the analysis.

[2] = parameters: species or system human; conditions: in vivo
Experimental: as §1
Safety was assessed based on the occurrence of adverse events and evaluation of laboratory tests (chemistry, hematology, urinalysis), physical examination, vital signs, and 12-lead electrocardiograms (ECGs) that were performed throughout the study. Safety was followed through 7 days postdose in the SAD part and followed through 7 days post-last dose in the MAD part.

[3] = system: Enterobacterales isolates; parameters: method as in ref 13, 14 = [13]; 13 Vidales A , Hackel M , Wise M , Sahm D . 2020 . Antimicrobial activity of cefepime in combination with taniborbactam (formerly VNRX-5133) against clinical isolates of Enterobacterales collected fro || [14]; 14 Kalamatas J , Hackel M , Wise M , Sahm D . 2020 . Antimicrobial activity of cefepime in combination with taniborbactam (formerly VNRX-5133) against a 2018–2019 surveillance collection of Pseudomona; conditions: cited from earlier work
[4] = single dose 62.5 mg, 2-h i.v. infusion, mean (%CV)
[5] = single dose 125 mg, 2-h i.v. infusion, mean (%CV)
[6] = single dose 250 mg, 2-h i.v. infusion, mean (%CV)
[7] = single dose 500 mg, 2-h i.v. infusion, mean (%CV)
[8] = single dose 1,000 mg, 2-h i.v. infusion, mean (%CV)
[9] = single dose 1,000 mg, mean (%CV)
[10] = single dose 1,500 mg, 2-h i.v. infusion, mean (%CV)
[11] = single dose 1,500 mg, mean (%CV)

## NCCN[C@H]1CC[C@H](CC(=O)N[C@H]2Cc3cccc(C(=O)O)c3OB2O)CC1 [Taniborbactam]
[1]; higher single-dose groups (500 to 1,500 mg)
  t1/2: ~5.7 h
[1]; [4]
  AUCinf: 11,284 (13.3) h · ng/ml
  CL: 5.6 (14.1) liters/h
  Cmax: 3,398 (17.0) ng/ml
  Vz: 28.4 (18.7) liters
[1]; single dose 62.5 mg, 2-h i.v. infusion
  Tmax: 2.0 (2.0, 2.0) h
[1]; single dose 62.5 mg, 2-h i.v. infusion, terminal elimination, mean (%CV)
  t1/2: 3.5 (9.3) h
[1]; [5]
  AUCinf: 20,326 (13.7) h · ng/ml
  CL: 6.2 (12.6) liters/h
  Cmax: 5,023 (13.8) ng/ml
  Vz: 30.2 (14.2) liters
[1]; single dose 125 mg, 2-h i.v. infusion
  Tmax: 2.0 (2.0, 2.0) h
[1]; single dose 125 mg, 2-h i.v. infusion, terminal elimination, mean (%CV)
  t1/2: 3.4 (5.8) h
[1]; [6]
  AUCinf: 41,106 (19.0) h · ng/ml
  CL: 6.3 (17.5) liters/h
  Cmax: 11,533 (13.8) ng/ml
  Vz: 34.6 (17.1) liters
[1]; single dose 250 mg, 2-h i.v. infusion
  Tmax: 2.0 (2.0, 2.0) h
[1]; single dose 250 mg, 2-h i.v. infusion, terminal elimination, mean (%CV)
  t1/2: 4.0 (31.1) h
[1]; [7]
  AUCinf: 82,499 (9.2) h · ng/ml
  CL: 6.1 (9.0) liters/h
  Cmax: 22,650 (11.4) ng/ml
  Vz: 50.2 (12.1) liters
[1]; single dose 500 mg, 2-h i.v. infusion
  Tmax: 2.0 (2.0, 2.0) h
[1]; single dose 500 mg, 2-h i.v. infusion, terminal elimination, mean (%CV)
  t1/2: 5.7 (4.3) h
[1]; single dose 500 mg, mean (%CV)
  Fe: 64.1 (9.6) %
  CLR: 3.9 (15.5) liters/h
  Ae: 320.6 (9.6) mg
[1]; single dose 500 mg, mean (%CV), listed as taniborbactam
  Fe: 64.1%
[1]; [8]
  AUCinf: 156,542 (15.7) h · ng/ml
  CL: 6.5 (15.7) liters/h
  Cmax: 43,317 (14.8) ng/ml
  Vz: 54.0 (17.9) liters
[1]; single dose 1,000 mg, 2-h i.v. infusion
  Tmax: 2.0 (2.0, 2.1) h
[1]; single dose 1,000 mg, 2-h i.v. infusion, terminal elimination, mean (%CV)
  t1/2: 5.7 (3.3) h
[1]; [9]
  Fe: 76.7 (9.4) %
  CLR: 5.0 (16.7) liters/h
  Ae: 766.9 (9.4) mg
[1]; single dose 1,000 mg, mean (%CV), listed as taniborbactam
  Fe: 76.7%
[1]; [10]
  AUCinf: 263,422 (17.8) h · ng/ml
  CL: 5.9 (19.2) liters/h
  Cmax: 71,817 (16.3) ng/ml
  Vz: 49.4 (21.6) liters
[1]; single dose 1,500 mg, 2-h i.v. infusion
  Tmax: 2.0 (2.0, 2.0) h
[1]; single dose 1,500 mg, 2-h i.v. infusion, terminal elimination, mean (%CV)
  t1/2: 5.8 (6.2) h
[1]; [11]
  Fe: 66.6 (12.9) %
  CLR: 3.9 (16.8) liters/h
  Ae: 998.7 (12.9) mg
[1]; single dose 1,500 mg, mean (%CV), listed as taniborbactam
  Fe: 66.6%
[1]; single doses, also seen within dose intervals on multiple dosing
  half-life of the earlier phase that characterizes the majority of exposure: about 2 h
[2]
  subjects with adverse events considered by the investigator to be treatment related: 4 subjects
[3]
  potentiation of cefepime activity as measured by the MIC90: at least 128 fold
